Data: patent US20130131156A1, “Cancer Treatment with Wortmannin Analogs” (ONCOTHYREON INC., priority 2010, published 2013)

Key:
PIK3CA (p110α) = PIK3CA (p110α) (Homo sapiens, UniProt P42336); assay: PI-3K isoform inhibition, p110α (PIK3CA); the text calls it cell based; settings: cell proliferation assays versus p110α and p110β isoforms
Description: PX-866 is an pan-isoform inhibitor of Class I P1-3K that covalently binds to ATP binding site of the p110 catalytic subunit.

[1] = Phase I trial of oral PX-866: clinical pharmacokinetics; format: in vivo, human
advanced solid tumors = assay: Phase I trial of oral PX-866: tumor response by RECIST; format: in vivo, human; settings: 1 to 7 prior treatments, median 4 prior systemic regimens
Method: (§1) This was an Open-label dose escalation study with expansion cohort at Maximal Tolerated Dose (MTD), 3+3 design and to test efficacy of 2 dosing schedules (intermittent and continuous). PX-866 was administered as an oral dose.
Patient response was evaluated according to Response Evaluation Criteria in Solid Tumors (RECIST). Briefly, all measurable lesions up to a maximum of five lesions, representative of all involved organs were identified as target lesions and recorded and measured at baseline. Target lesions were selected on the basis of their size (lesions with the longest diameter) and their suitability for accurate repeated measurements (either by imaging techniques or clinically). A sum of the longest diameter (LD) for all target lesions was calculated and reported as the baseline sum LD. The baseline sum LD was used as reference by which to characterize the objective tumor. All other lesions (or sites of disease) were identified as non-target lesions and were also be recorded at baseline. Measurements of these lesions were not required, but the presence or absence of each was noted throughout follow-up.
A Complete Response (CR) indicated a disappearance of all target lesions.

[2] = Phase I trial of oral PX-866: safety, DLT and MTD; format: in vivo, human; settings: for Maximal Tolerated Dose (MTD): oral
Method: as §1
The primary and secondary objectives were tested using two different dosing regimens: 10 days of drug administration and daily administration for 28 days.
Intermittent schedule: 10 dose levels tested (0.5-16 mg). The starting dose level was 0.5 mg. Doses increased as follows: 100% escalation up to 2 mg, 50% escalation up to 4.5 mg, and approximately 30% escalation until the MTD is identified. The highest dose level at which no more than 1/6 patients experiences DLT was declared the MTD. The resulting dose levels were: 0.5, 1, 2, 3, 4.5, 6, 8, 10, 12 and 16 mg.
FIG. 1 illustrates the dosing schedule for intermittent dosing where PX-866 was given to patients on days 1-5 and 8-12 of a 28-day cycle.
Continuous dosing schedule: The starting dose was two dose levels below the MTD of intermittent dosing (8 mg) and subsequent dose levels was one or two dose levels (10 mg or 8 mg) below the MTD of intermittent dosing dependent on recommendation of the dose cohort review committee. FIG. 1 illustrates the dosing schedule for continuous dosing.

p-AKT/T-AKT = assay: Clinical pharmacodynamics: p-AKT/T-AKT after a single oral dose; format: in vivo, human; settings: 3 of 4 patients, 8 mg dose level, 4 hours after a single oral dose
PI-3K pathway = assay: Clinical pharmacodynamics: PBMCs stimulated ex vivo, FACS based assay (p-mTOR, p-S6); format: in vivo, human; settings: PBMCs of treated patients stimulated ex vivo
Method: The pharmacodynamic effects of PX-866 in patients treated in the phase I single agent study were assessed using isolated peripheral blood mononuclear cells (PBMCs) stimulated ex vivo via FACS based assay. […] The study provided Evidence for pathway inhibition lasting up to 3 days post-treatment.

PIK3CA (p110α), sequence (P42336 whole entry, canonical isoform): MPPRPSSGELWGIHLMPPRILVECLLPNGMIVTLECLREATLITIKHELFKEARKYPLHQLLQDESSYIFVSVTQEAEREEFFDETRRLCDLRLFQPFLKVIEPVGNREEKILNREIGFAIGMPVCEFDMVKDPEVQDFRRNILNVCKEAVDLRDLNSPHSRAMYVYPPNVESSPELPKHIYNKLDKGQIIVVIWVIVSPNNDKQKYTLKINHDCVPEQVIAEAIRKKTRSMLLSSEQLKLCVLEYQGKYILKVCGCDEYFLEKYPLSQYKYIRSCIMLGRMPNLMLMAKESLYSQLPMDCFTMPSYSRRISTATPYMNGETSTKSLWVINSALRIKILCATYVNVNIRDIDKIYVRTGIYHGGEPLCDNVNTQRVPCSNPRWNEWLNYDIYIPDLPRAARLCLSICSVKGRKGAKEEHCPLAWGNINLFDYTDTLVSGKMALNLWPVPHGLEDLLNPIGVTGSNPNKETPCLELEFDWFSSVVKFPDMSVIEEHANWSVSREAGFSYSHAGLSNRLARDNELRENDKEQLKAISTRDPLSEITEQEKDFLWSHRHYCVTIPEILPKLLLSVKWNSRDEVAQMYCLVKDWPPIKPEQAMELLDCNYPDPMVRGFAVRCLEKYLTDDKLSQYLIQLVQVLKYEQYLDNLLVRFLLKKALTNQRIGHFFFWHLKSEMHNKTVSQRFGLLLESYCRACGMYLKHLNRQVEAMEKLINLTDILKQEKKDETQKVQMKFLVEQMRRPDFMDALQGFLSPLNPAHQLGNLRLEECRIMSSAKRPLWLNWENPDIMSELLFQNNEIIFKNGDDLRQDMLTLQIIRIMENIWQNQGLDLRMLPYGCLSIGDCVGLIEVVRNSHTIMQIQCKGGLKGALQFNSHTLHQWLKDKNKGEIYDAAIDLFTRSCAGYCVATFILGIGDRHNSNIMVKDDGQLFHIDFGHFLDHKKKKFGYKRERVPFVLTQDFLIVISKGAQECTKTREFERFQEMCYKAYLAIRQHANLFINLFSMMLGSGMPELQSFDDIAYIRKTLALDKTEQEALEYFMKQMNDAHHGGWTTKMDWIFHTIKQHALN
PIK3CA (p110α), sequence (P27986 whole entry partner, canonical isoform): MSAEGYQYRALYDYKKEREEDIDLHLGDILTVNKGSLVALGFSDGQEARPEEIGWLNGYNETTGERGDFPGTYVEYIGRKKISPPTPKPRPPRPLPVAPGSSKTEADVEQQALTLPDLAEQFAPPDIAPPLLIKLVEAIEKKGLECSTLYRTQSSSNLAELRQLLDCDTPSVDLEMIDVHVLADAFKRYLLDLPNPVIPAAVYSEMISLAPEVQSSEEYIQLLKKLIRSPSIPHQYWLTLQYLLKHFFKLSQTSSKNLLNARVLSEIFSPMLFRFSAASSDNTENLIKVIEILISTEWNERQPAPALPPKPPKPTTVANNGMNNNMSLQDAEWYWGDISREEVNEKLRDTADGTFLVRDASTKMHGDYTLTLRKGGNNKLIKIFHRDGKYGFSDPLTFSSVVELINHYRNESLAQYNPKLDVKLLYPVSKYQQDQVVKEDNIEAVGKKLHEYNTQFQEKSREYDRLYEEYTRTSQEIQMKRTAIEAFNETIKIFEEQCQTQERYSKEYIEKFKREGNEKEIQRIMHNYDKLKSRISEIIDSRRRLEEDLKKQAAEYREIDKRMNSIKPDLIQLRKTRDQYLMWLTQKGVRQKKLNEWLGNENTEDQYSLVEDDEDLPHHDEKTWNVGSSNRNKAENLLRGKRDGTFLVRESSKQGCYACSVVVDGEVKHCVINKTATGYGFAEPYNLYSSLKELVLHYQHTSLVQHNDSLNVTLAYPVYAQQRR

Structure (SMILES) | increase in potency versus the parent PX-866 (PIK3CA (p110α)) | AUC in humans compared with mice ([1]; due to an increase in mean residence time in humans) | effect on disease in prior treated patients (advanced solid tumors) | plasma level of parent PX-866 ([1]; after oral PX-866, with rare exceptions) | Maximal Tolerated Dose (MTD) ([2]; continuous daily dosing) [mg per day] | ALT/AST ([2]; continuous dosing) | Most common adverse events ([2]; continuous dosing) | Related Grade 3 events ([2]; continuous dosing section) | Dose limiting toxicity (DLT), patients affected ([2]; continuous dosing, 10 mg per day, Grade 3 diarrhea (n=2)) | Most common adverse events ([2]; intermittent dosing) | Related Grade 3 events ([2]; intermittent dosing) | Dose limiting toxicity (DLT), patients affected ([2]; intermittent dosing, 16 mg per day, Grade 3 diarrhea (n=1), Grade 3 AST (n=1)) | Maximal Tolerated Dose (MTD) ([2]; intermittent dosing, days 1-5 and 8-12 of a 28-day cycle) [mg per day] | toxicity in patients receiving >2 cycles ([2]; printed in the continuous dosing section but worded intermittent dosing schedule) | decrease in p-AKT/T-AKT (p-AKT/T-AKT) [%] | effect on the PI-3K pathway (p-mTOR, p-S6) (PI-3K pathway)
C=CCN(C=C1C(=O)OC(COC)C2(C)C1=C(O)C(=O)C1=C2C(OC(C)=O)CC2(C)C(O)CCC12)CC=C (stereo not shown) [17-OH PX-866] | 2-5 fold | exceeded AUC in mice |  |  |  |  |  |  |  |  |  |  |  |  |  | 
C=CCN(/C=C1/C(=O)O[C@H](COC)[C@@]2(C)C1=C(O)C(=O)C1=C2[C@H](OC(C)=O)C[C@]2(C)C(=O)CC[C@@H]12)CC=C [PX-866, Acetic acid 4-diallylaminomethylene-6-hydroxy-1-α-methoxymethyl-10β,13β-dimethyl-3,7,17-trioxo-1,3,4,7,10,11β,12,13,14α,15,16,17-dodecahydro-2-oxa-cyclopenta[α]phenanthren-11-yl ester] |  |  | stabilized disease | below the limits of detection | 8 | ALT/AST elevation was observed | diarrhea, nausea, vomiting, headache and fatigue | vomiting (n=3), diarrhea (n=3), liver enzyme elevation (n=2) dehydration (n=1), worsened hypertension (n=1) | 2/3 | diarrhea, nausea, vomiting, and constipation | vomiting (n=3), diarrhea (n=3), liver enzyme elevation (n=2) dehydration (n=1), and worsened hypertension (n=1) | 2/5 | 12 | No significant increase in toxicity | ≥ 60 | inhibition of the PI-3K pathway
